In general, Ki refers to a measure of affinity in units of concentration, obtained from inhibition or displacement. Read a high Ki as a looser hold on the target.

Each structure is given as a SMILES string.

The target in this assay is Neuronal acetylcholine receptor subunit alpha-4/beta-2 (Rattus norvegicus, UniProt P09483+P12390). Put plainly: Inhibition of [3H]epibatidine binding to Nicotinic acetylcholine receptor alpha4-beta2 in rat cerebral cortex.
Chain of Neuronal acetylcholine receptor subunit alpha-4/beta-2 (P09483 whole entry): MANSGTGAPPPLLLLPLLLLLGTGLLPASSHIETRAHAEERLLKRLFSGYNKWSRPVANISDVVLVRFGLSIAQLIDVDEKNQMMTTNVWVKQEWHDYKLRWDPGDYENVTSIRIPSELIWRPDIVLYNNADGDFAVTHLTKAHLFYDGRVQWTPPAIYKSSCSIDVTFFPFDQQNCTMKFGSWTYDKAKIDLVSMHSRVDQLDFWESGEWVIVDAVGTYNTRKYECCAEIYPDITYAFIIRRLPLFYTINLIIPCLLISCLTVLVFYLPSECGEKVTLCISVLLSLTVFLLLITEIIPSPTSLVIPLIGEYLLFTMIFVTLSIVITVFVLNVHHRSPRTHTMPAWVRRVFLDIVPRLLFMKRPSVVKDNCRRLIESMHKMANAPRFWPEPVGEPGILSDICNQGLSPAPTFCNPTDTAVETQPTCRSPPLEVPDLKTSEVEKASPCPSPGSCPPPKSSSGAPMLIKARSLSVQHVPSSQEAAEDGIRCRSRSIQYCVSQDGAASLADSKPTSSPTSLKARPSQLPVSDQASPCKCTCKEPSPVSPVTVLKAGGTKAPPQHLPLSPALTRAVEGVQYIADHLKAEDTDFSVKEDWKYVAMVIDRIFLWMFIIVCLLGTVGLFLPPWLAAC
Chain of Neuronal acetylcholine receptor subunit alpha-4/beta-2 (P12390 whole entry): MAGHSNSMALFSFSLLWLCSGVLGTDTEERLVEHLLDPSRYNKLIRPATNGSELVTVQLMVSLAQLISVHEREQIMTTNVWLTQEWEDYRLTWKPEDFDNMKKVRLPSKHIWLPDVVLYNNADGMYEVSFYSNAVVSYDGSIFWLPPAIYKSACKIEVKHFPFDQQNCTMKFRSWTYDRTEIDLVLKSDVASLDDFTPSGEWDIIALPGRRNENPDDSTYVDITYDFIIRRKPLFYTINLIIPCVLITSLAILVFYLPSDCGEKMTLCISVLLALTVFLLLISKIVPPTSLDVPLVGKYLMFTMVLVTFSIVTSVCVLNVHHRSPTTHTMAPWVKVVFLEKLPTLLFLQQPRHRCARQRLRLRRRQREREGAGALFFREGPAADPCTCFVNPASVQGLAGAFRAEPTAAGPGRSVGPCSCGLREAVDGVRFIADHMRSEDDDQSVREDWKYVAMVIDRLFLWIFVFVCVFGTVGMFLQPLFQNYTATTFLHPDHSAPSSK

Turning to `Clc1cncc(C2CC3CCC2N3)c1` (stereo unspecified) [2-(5-Chloro-pyridin-3-yl)-7-aza-bicyclo[2.2.1]heptane], the affinity, expressed as Ki, was 0.06 nM.

(Values after BindingDB's records for doi:10.1021/jm040160b (Research Triangle Institute, 2005).)
